# How the values were obtained:
# [1] = tested on: diastolic congestive heart failure patients; assay: Echocardiographic evaluation of diastolic function in diastolic congestive heart failure patients, EPA-E-administered vs non-administered group (Example 2); type: in vivo, human
# Description: Diastolic congestive heart failure patients were targeted and divided into an EPA-E-administered group and an EPA-E-non-administered group. The EPA-E-administered group received the oral administration of EPA-E (trade name: Epadel; manufactured by Mochida Pharmaceutical Co., Ltd.) at a daily dose of 1800 mg for 6 months. The EPA-E-non-administered group received neither EPA nor its derivative during the test period. Another hypotensive or antilipidemic agent was not administered to any of these groups during the test period. The diastolic function of each patient was evaluated by echocardiography before the start of the test and after the completion of the test (6 months later). The evaluation items used were 1) a ratio of a peak filling velocity of early diastolic transmitral flow (a peak filling velocity of mitral inflow during early diastole: E) to a peak filling velocity of atrial systolic transmitral flow (a peak filling velocity of mitral inflow during atrial contraction: A) (E/A ratio), 2) the time required for the peak filling velocity of mitral inflow during early diastole to reach zero (deceleration time: DT), 3) an early diastolic mitral annulus velocity (E), and 4) an E/E′ ratio. The degree of improvement in these indexes was confirmed for each case corresponding to 1) an E/A ratio<1.0, 2) DT>250 msec, 3) E′<8 cm/s, or 4) an E/E′ ratio>15 as an index for cardiac diastolic dysfunction. The rate of change was determined as an average of % change from the value (defined as 100) before the start to the value after 6 months in each case.
# [2] = tested on: diastolic congestive heart failure patients; assay: as above; type: in vivo, human; conditions: target cases E′ <8 cm/s (18 cases)
# [3] = printed as reduction (improvement), average of % change per case, before start to 6 months, 1800 mg/day oral
# [4] = printed as rise (improvement), average of % change per case, before start to 6 months, 1800 mg/day oral
smiles,measurement,setting,value
"CC/C=C\C/C=C\C/C=C\C/C=C\C/C=C\CCCC(=O)OCC [EPA-E, icosapentaenoic acid ethyl ester]","DT, rate of change",[1]; [3],10.9% reduction
same,"E/E′ ratio, rate of change",[1]; [3],27.4% reduction
same,"E/A ratio, rate of change",[1]; [4],3.7% rise
same,"E′, rate of change",[1]; [4],2.3% rise
same,"DT (deceleration time), mean after 6 months","[1]; target cases DT >250 msec (6 cases), EPA-E 1800 mg/day oral, 6 months",241.7 ms
same,"DT (deceleration time), mean before start","[1]; target cases DT >250 msec (6 cases), baseline before EPA-E 1800 mg/day oral",271.3 ms
same,"E/A ratio, mean after 6 months","[1]; target cases E/A ratio <1.0 (14 cases), EPA-E 1800 mg/day oral, 6 months",0.692
same,"E/A ratio, mean before start","[1]; target cases E/A ratio <1.0 (14 cases), baseline before EPA-E 1800 mg/day oral",0.669
same,"E/E′ ratio, mean after 6 months","[1]; target cases E/E′ ratio >15 (4 cases), EPA-E 1800 mg/day oral, 6 months",13.14
same,"E/E′ ratio, mean before start","[1]; target cases E/E′ ratio >15 (4 cases), baseline before EPA-E 1800 mg/day oral",18.09
same,"E′ (early diastolic mitral annular velocity), mean after 6 months","[2]; EPA-E 1800 mg/day oral, 6 months",4.539 cm/s
same,"E′ (early diastolic mitral annular velocity), mean before start",[2]; baseline before EPA-E 1800 mg/day oral,4.483 cm/s

# Reference: patent US20140039053A1, “THERAPEUTIC AGENT FOR DIASTOLIC CONGESTIVE HEART FAILURE” (Mochida Pharmaceutical Co., Ltd., priority 2011, published 2014)
